According to article PMC4452637, “Identification of positron emission tomography (PET) tracer candidates by prediction of the target-bound fraction in the brain” (EJNMMI Research, 2014):

Legend:
nAChr a4b2 = target: nAChr a4b2; parameters: method as in ref 2 (Additional file 1); settings: literature value; ref 2 (Additional file 1); cited from earlier work
Sigma [1] = target: Sigma; parameters: method as in ref 77 (Additional file 1); settings: literature value; ref 77 (Additional file 1); cited from earlier work
5HT1b = target: 5HT1b; parameters: method as in ref 10 (Additional file 1); settings: literature value; ref 10 (Additional file 1); cited from earlier work
[2] = Unbound fraction in brain homogenate (fu,brain); Vu,brain calculated from it with pH-partition model; settings: calculated from reported fu,brain and tracer pKa with pH-partition model (tracers with fu,brain tabulated, footnote h of Table S1)
Experimental: The unbound volume of distribution in the brain (Vu,brain) describing the extent of non-specific partitioning was determined for 31 tracers using a previously described high-throughput brain slice method [11].

Sigma [3] = test: PET imaging of specific target binding (BPND, tracer functionality); format: in vivo; settings: non-functioning tracer: corresponds to arbitrarily assigned low ftb 0.09, not from PET data; blank in Table S1
[4] = parameters: method as in ref 10 (a number printed in a supplementary file, which may have a reference list of its own: not looked up in the article's list); settings: unbound fraction in homogenized brain tissue, reported; cited from earlier work
5HT2a = target: 5HT2a; parameters: method as in ref 7 (Additional file 1); settings: literature value; ref 7 (Additional file 1); cited from earlier work
5HT1a = target: 5HT1a; parameters: method as in ref 50 (Additional file 1); settings: literature value; ref 50 (Additional file 1); cited from earlier work
D2/D3 = target: D2/D3; parameters: method as in ref 59 (Additional file 1); settings: literature value; ref 59 (Additional file 1); cited from earlier work
D1 = target: D1; parameters: method as in ref 52, 53 (Additional file 1); settings: literature value; 53 (Additional file 1); cited from earlier work
GABA = settings: non-functioning tracer: corresponds to arbitrarily assigned low ftb 0.09, not from PET data; blank in Table S1

Fc1ncccc1OC[C@@H]1CCN1 [[^18 F]2-FA-85380]
Kd (nAChr a4b2): 145 pM

CCCN(CCC)CCc1ccc(OC)c(OCCc2ccccc2)c1 [[^11C]NE100]
Kd (Sigma [1]): 1200 pM

Cc1ccc(N2CCN(C)CC2)c2oc(C(=O)Nc3ccc(N4CCOCC4)cc3)cc(=O)c12 [[^11C]AZ10419369]
Kd (5HT1b): 370 pM

CCCN(CCC)CCc1ccc(O[11CH3])c(OCCc2ccccc2)c1 [[^11C]NE100]
V u,brain [2]: 96 mL/g brain
BP ND (Sigma [3]): 0.1
fu,brain [4]: 0.03

O=C(c1ccc(F)cc1)C1CCN(CCn2c(=S)[nH]c3ccccc3c2=O)CC1 [[^18 F]Altanserin]
Kd (5HT2a): 320 pM

COc1ccccc1N1CCN(CCN(C(=O)c2ccc(F)cc2)c2ccccn2)CC1 [[^18 F]MPPF]
Kd (5HT1a): 3300 pM

CCCN1CCO[C@@H]2c3cc(O)ccc3CCC21 (some centres unmarked) [[^11C]PHNO]
Kd (D2/D3): 560 pM

CN1CCc2cc(Cl)c(O)cc2[C@@H](c2cccc3ccoc23)C1 [[^11C]NNC112]
Kd (D1): 180 pM

[11CH3]N1C(=O)CN=C(c2ccccc2)c2cc(Cl)ccc21 [[^11C]Diazepam]
BP ND (GABA): 0.1
